Reference: ChEMBL document CHEMBL1201862, “PubChem BioAssay data set” (2004)
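The compound was tested at five concentrations on cells cultured in 96-well plates, with a 48-hour exposure period. GI50 is the concentration that inhibits growth by half.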 Calls of active or inactive are those of the source. Rule as the data show it: active = GI50 up to about 1.1 µM and inactive = higher.

Experiments:
Experiment in all cases: NCI anticancer screen, dose series, 48 h
LOX IMVI = tested on: LOX IMVI
SNB-75 = tested on: SNB-75
786-0 = tested on: 786-0
HT-29 = tested on: HT-29
OVCAR-8 = tested on: OVCAR-8
NCI-H23 = tested on: NCI-H23
IGROV-1 = tested on: IGROV-1
RPMI-8226 = tested on: RPMI-8226
TK-10 = tested on: TK-10
EKVX = tested on: EKVX
HCT-15 = tested on: HCT-15
A498 = tested on: A498
CCRF-CEM = tested on: CCRF-CEM
RXF 393 = tested on: RXF 393
SF-268 = tested on: SF-268
SR = tested on: SR
HOP-92 = tested on: HOP-92

Row | Structure (SMILES) | GI50 (LOX IMVI) | GI50 (SNB-75) | GI50 (786-0) | GI50 (HT-29) | GI50 (OVCAR-8) | GI50 (NCI-H23) | GI50 (IGROV-1) | GI50 (RPMI-8226) | GI50 (TK-10) | GI50 (EKVX) | GI50 (HCT-15) [µM] | GI50 (A498) | GI50 (CCRF-CEM) | GI50 (RXF 393) | GI50 (SF-268) | GI50 (SR) | GI50 (HOP-92)
1 | Cn1c2c([N+](=O)[O-])cccc2c(=O)c2c(O)cc3c(c21)C=CC(C)(C)O3 | 25.2 µM (inactive) | 23.9 µM (inactive) | 32 µM (inactive) | 23.4 µM (inactive) | 29.6 µM (inactive) | 30.8 µM (inactive) | 34.4 µM (inactive) | 18.4 µM (inactive) | 54.6 µM (inactive) | 6.59 µM (inactive) | 20.7 | 5.51 µM (inactive) | 41 µM (inactive) | 18.1 µM (inactive) | 38.9 µM (inactive) | – | –
2 | COc1ccc(CC(=O)NCCc2ccc(OC)c(OC)c2OC)cc1 | – | > 100 µM (inactive) | 41.6 µM (inactive) | > 100 µM (inactive) | > 100 µM (inactive) | > 100 µM (inactive) | > 100 µM (inactive) | > 100 µM (inactive) | > 100 µM (inactive) | > 100 µM (inactive) | – | > 100 µM (inactive) | > 100 µM (inactive) | > 100 µM (inactive) | > 100 µM (inactive) | > 100 µM (inactive) | –
3 | CCN(CC)CC(=N)N(CC)c1ccccc1 | > 100 µM (inactive) | 33.7 µM (inactive) | > 100 µM (inactive) | – | > 100 µM (inactive) | > 100 µM (inactive) | > 100 µM (inactive) | > 100 µM (inactive) | > 100 µM (inactive) | > 100 µM (inactive) | > 100 | > 100 µM (inactive) | > 100 µM (inactive) | > 100 µM (inactive) | > 100 µM (inactive) | – | > 100 µM (inactive)
4 | CN(C)[C@@H]1C(O)=C(C(=O)NCNCCCC(=O)O)C(=O)[C@@]2(O)C(O)=C3C(=O)c4c(O)cccc4[C@@](C)(O)[C@H]3C[C@@H]12 | > 100 µM (inactive) | – | > 100 µM (inactive) | > 100 µM (inactive) | > 100 µM (inactive) | > 100 µM (inactive) | > 100 µM (inactive) | > 100 µM (inactive) | > 100 µM (inactive) | > 100 µM (inactive) | > 100 | > 100 µM (inactive) | > 100 µM (inactive) | > 100 µM (inactive) | > 100 µM (inactive) | > 100 µM (inactive) | > 100 µM (inactive)
5 | OC12c3ccccc3C1CCCCCC21OCCCO1 (stereo not given) | > 100 µM (inactive) | > 100 µM (inactive) | > 100 µM (inactive) | > 100 µM (inactive) | > 100 µM (inactive) | > 100 µM (inactive) | > 100 µM (inactive) | > 100 µM (inactive) | > 100 µM (inactive) | – | > 100 | > 100 µM (inactive) | > 100 µM (inactive) | > 100 µM (inactive) | > 100 µM (inactive) | – | –
6 | COc1ccc(-c2onc(-c3c(C)cc(C)cc3C)c2C2=NCCCN2)cc1 | 43.3 µM (inactive) | – | 31.8 µM (inactive) | 31.2 µM (inactive) | 58.9 µM (inactive) | > 100 µM (inactive) | > 100 µM (inactive) | 23.6 µM (inactive) | – | 96.8 µM (inactive) | 39.1 | – | 35 µM (inactive) | 47.3 µM (inactive) | 36.7 µM (inactive) | 36.6 µM (inactive) | –
7 | O=S1(=O)OCCOS(=O)(=O)C1(Cl)Cl | 61.4 µM (inactive) | > 100 µM (inactive) | 61.9 µM (inactive) | > 100 µM (inactive) | > 100 µM (inactive) | > 100 µM (inactive) | > 100 µM (inactive) | > 100 µM (inactive) | > 100 µM (inactive) | > 100 µM (inactive) | – | > 100 µM (inactive) | 54.2 µM (inactive) | – | 43.5 µM (inactive) | 35.6 µM (inactive) | 97.5 µM (inactive)
8 | NC(=S)N/C=C1\C(=O)Oc2ccccc2C1=O | > 100 µM (inactive) | 14.1 µM (inactive) | 53.5 µM (inactive) | > 100 µM (inactive) | 56.5 µM (inactive) | > 100 µM (inactive) | 63.4 µM (inactive) | > 100 µM (inactive) | 90.4 µM (inactive) | > 100 µM (inactive) | 48 | 51.4 µM (inactive) | > 100 µM (inactive) | 18.4 µM (inactive) | 24.7 µM (inactive) | – | 35.5 µM (inactive)
9 | COc1ccc(NC(=O)CCc2cc(C(C)(C)C)[nH]n2)cc1 | > 100 µM (inactive) | > 100 µM (inactive) | > 100 µM (inactive) | > 100 µM (inactive) | > 100 µM (inactive) | > 100 µM (inactive) | > 100 µM (inactive) | > 100 µM (inactive) | > 100 µM (inactive) | > 100 µM (inactive) | > 100 | > 100 µM (inactive) | > 100 µM (inactive) | > 100 µM (inactive) | > 100 µM (inactive) | > 100 µM (inactive) | > 100 µM (inactive)
10 | CSC(=N)NNC(=O)CCC(=O)Nc1ccccc1C(F)(F)F | > 100 µM (inactive) | > 52.2 µM (inactive) | > 100 µM (inactive) | > 100 µM (inactive) | > 100 µM (inactive) | > 100 µM (inactive) | > 100 µM (inactive) | > 100 µM (inactive) | > 100 µM (inactive) | > 100 µM (inactive) | > 100 | > 100 µM (inactive) | > 100 µM (inactive) | > 100 µM (inactive) | > 100 µM (inactive) | > 100 µM (inactive) | > 100 µM (inactive)
11 | O=C1[C@@H]2C(c3ccccc3[N+](=O)[O-])=NO[C@@H]2C(=O)N1c1ccc(Cc2ccc(N3C(=O)[C@H]4C(c5ccccc5[N+](=O)[O-])=NO[C@H]4C3=O)cc2)cc1 | > 100 µM (inactive) | > 100 µM (inactive) | > 100 µM (inactive) | > 100 µM (inactive) | > 100 µM (inactive) | > 100 µM (inactive) | > 100 µM (inactive) | > 100 µM (inactive) | > 100 µM (inactive) | > 100 µM (inactive) | > 100 | > 100 µM (inactive) | > 100 µM (inactive) | > 100 µM (inactive) | > 100 µM (inactive) | > 100 µM (inactive) | > 100 µM (inactive)
12 | Cc1cc(N(CCC#N)CCC#N)ccc1/C=C1N=C(/C=C/c2ccccc2)OC(=O)N\1 | > 100 µM (inactive) | 31.3 µM (inactive) | 37.8 µM (inactive) | > 100 µM (inactive) | > 100 µM (inactive) | > 100 µM (inactive) | > 100 µM (inactive) | > 100 µM (inactive) | > 100 µM (inactive) | > 100 µM (inactive) | > 100 | > 100 µM (inactive) | > 100 µM (inactive) | 91.8 µM (inactive) | > 100 µM (inactive) | – | –
13 | COc1cc(/C=N\O[Si](C)(C)C(C)(C)C)ccc1O[Si](C)(C)C(C)(C)C | 26.6 µM (inactive) | > 100 µM (inactive) | 32.4 µM (inactive) | 47.3 µM (inactive) | 64.1 µM (inactive) | – | > 100 µM (inactive) | 56.6 µM (inactive) | > 100 µM (inactive) | > 100 µM (inactive) | 27.4 | – | 42.9 µM (inactive) | 36 µM (inactive) | 67.9 µM (inactive) | – | 25.4 µM (inactive)
14 | NC(=O)c1coc(C2OC(CO)C(O)C2O)n1 (stereo not given) | > 100 µM (inactive) | – | > 100 µM (inactive) | > 100 µM (inactive) | – | > 100 µM (inactive) | > 100 µM (inactive) | > 100 µM (inactive) | > 100 µM (inactive) | > 100 µM (inactive) | > 100 | > 100 µM (inactive) | > 100 µM (inactive) | – | > 100 µM (inactive) | > 100 µM (inactive) | > 100 µM (inactive)
15 | CCCCCCC(/C=N/O)C(C)(O)CCC (stereo not given) | > 100 µM (inactive) | > 100 µM (inactive) | > 100 µM (inactive) | > 100 µM (inactive) | > 100 µM (inactive) | > 100 µM (inactive) | > 100 µM (inactive) | 54 µM (inactive) | > 100 µM (inactive) | > 100 µM (inactive) | > 100 | > 100 µM (inactive) | > 100 µM (inactive) | > 100 µM (inactive) | > 100 µM (inactive) | – | –
16 | COC(=O)C(C(=O)C(=O)Nc1nnc(S)[nH]1)c1csc(N)n1 (stereo not given) | > 100 µM (inactive) | > 100 µM (inactive) | > 100 µM (inactive) | > 100 µM (inactive) | > 100 µM (inactive) | > 100 µM (inactive) | > 100 µM (inactive) | > 100 µM (inactive) | > 100 µM (inactive) | > 100 µM (inactive) | > 100 | > 100 µM (inactive) | > 100 µM (inactive) | > 100 µM (inactive) | > 100 µM (inactive) | > 100 µM (inactive) | –
17 | O=C1OC(c2cccc(C(F)(F)F)c2)c2ccc3ccccc3c21 (stereo not given) | 8.45 µM (inactive) | 18.7 µM (inactive) | > 10 µM (inactive) | > 10 µM (inactive) | > 10 µM (inactive) | 4.95 µM (inactive) | > 10 µM (inactive) | – | > 10 µM (inactive) | > 10 µM (inactive) | 8.22 | > 10 µM (inactive) | 9.06 µM (inactive) | 13.5 µM (inactive) | > 10 µM (inactive) | > 10 µM (inactive) | 91.8 µM (inactive)
18 | COc1ccc(OC)c2c3c(ccc12)C(c1ccccc1)OC3=O (stereo not given) | 56.5 µM (inactive) | 38.7 µM (inactive) | 60.7 µM (inactive) | 58.3 µM (inactive) | 39.4 µM (inactive) | 17.7 µM (inactive) | > 100 µM (inactive) | 24.9 µM (inactive) | 60.4 µM (inactive) | > 100 µM (inactive) | 61 | 81.7 µM (inactive) | 64 µM (inactive) | 39.9 µM (inactive) | > 100 µM (inactive) | 45 µM (inactive) | –
